Data on three molecules can be found in ChEMBL document CHEMBL2203036, “Discovery of 1-[2-(2,4-dimethylphenylsulfanyl)phenyl]piperazine (Lu AA21004): a novel multimodal compound for the treatment of major depressive disorder” (J Med Chem, 2011).

Series [1] concerns Rattus norvegicus. Description: Antidepression activity in sc dosed Harlan rat assessed as increase in extracellular 5HT level in ventral hippocampus region measured up to 180 mins by microdialysis method relative to vehicle-treated control. Type of series: functional.
Series [2] addresses 5-hydroxytryptamine receptor 2C (Homo sapiens, UniProt P28335). Description: Binding affinity to human 5HT2C receptor.
Series [3] concerns the target T1, 5-hydroxytryptamine receptor 3A (Homo sapiens, UniProt P46098).
T1 sequence (P46098 whole entry): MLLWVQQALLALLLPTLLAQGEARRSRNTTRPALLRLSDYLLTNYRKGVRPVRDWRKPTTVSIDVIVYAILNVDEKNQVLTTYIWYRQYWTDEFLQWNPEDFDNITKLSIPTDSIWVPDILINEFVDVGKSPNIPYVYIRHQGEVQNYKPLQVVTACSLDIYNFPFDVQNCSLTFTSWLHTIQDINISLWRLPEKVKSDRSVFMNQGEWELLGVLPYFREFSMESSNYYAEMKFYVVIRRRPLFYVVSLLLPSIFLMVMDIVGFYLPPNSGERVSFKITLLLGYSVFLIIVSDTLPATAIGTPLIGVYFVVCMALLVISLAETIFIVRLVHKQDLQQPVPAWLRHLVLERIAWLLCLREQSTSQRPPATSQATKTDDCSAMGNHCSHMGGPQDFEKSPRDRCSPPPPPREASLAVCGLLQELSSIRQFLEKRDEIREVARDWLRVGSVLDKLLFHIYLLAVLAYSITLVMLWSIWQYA
The series is described as follows: Displacement of [3H]granisetron from human 5HT3A receptor expressed in HEK293 cells by filter binding assay. In kind it is cell-based.

The target in series [4] is Alpha-1A adrenergic receptor (Rattus norvegicus, UniProt P43140). Description: Binding affinity to rat alpha1 adrenergic receptor.
Chain of Alpha-1A adrenergic receptor (P43140 whole entry): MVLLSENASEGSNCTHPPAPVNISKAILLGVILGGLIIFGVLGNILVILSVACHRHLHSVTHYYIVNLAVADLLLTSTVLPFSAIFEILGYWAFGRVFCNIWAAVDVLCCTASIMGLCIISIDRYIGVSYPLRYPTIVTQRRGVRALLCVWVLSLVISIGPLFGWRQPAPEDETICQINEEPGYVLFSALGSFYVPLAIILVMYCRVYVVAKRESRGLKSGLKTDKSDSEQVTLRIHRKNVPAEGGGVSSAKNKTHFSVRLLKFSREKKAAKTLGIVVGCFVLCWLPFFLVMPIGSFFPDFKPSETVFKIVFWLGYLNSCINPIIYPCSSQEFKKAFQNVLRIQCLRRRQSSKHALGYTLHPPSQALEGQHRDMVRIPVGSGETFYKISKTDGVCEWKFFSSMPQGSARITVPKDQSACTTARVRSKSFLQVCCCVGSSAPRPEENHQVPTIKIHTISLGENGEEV
For series [5], the target named is T2, 5-hydroxytryptamine receptor 1A (Homo sapiens, UniProt P08908).
T2 sequence (P08908 whole entry): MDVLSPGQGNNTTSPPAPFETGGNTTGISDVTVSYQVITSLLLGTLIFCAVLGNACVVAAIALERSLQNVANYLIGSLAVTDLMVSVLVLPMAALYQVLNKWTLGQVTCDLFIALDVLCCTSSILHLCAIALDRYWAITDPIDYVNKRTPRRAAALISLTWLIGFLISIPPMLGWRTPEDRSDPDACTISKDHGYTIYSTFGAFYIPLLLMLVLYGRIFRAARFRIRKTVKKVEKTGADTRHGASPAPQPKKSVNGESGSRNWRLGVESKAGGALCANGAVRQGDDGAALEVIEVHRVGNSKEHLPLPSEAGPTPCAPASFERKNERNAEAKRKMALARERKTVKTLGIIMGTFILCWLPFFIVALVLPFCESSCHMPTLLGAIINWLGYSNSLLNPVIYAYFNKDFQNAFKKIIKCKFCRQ
The series is described as follows: biochemical. In kind it is cell-based, HEK293.
Description: Displacement of [3H]5-carboxamidotryptamine to human 5HT1A expressed in HEK293 cells by filter binding assay

Series [6] addresses Sodium-dependent serotonin transporter (Rattus norvegicus, UniProt P31652). Description: Inhibition of SERT-mediated [3H]5HT uptake in rat synaptosomes by scintillation counting. In kind it is subcellular, Brain.
Series [7] relates to Liver microsomes. The series is described as follows: Intrinsic clearance in human liver microsomes at 1 uM after 60 mins by LC-MS/MS analysis. Type of series: ADME, Microsome. The following applies: 1 h.
Series [8] relates to Rattus norvegicus. Description: Hepatic clearance in rat at 1 mg/kg, iv. In kind it is ADME, organism-based, Liver. As to conditions: in vivo. Also on record: dose 1 mg/kg, route intravenous.
For series [9], the species on record is Rattus norvegicus. Description: Selectivity ratio of IC50 for NET to IC50 for SERT in rat synaptosomes. As to conditions: Brain.
Series [10] is described as follows: Inhibition of rat NET.
Series [11] addresses T3, Sodium-dependent dopamine transporter (Rattus norvegicus, UniProt P23977). Description: Inhibition of rat DAT.
The species entered for series [12] is Rattus norvegicus. The series is described as follows: Selectivity ratio of IC50 for DAT to IC50 for SERT in rat synaptosomes. As to conditions: Brain.
Another series concerns the target Cytochrome P450 2C9 (Homo sapiens, UniProt P11712). Description: Inhibition of human recombinant CYP2C9 using dibenzylfluorescein after 45 mins by fluorescence spectrophotometric analysis. Type of series: ADME.
The species entered for series [13] is Rattus norvegicus. Description: Selectivity ratio of IC50 for rat NET to IC50 for SERT in rat synaptosomes. As to conditions: Brain.
The target of a further series is Cytochrome P450 3A4 (Homo sapiens, UniProt P08684). The series is described as follows: Inhibition of human recombinant CYP3A4 using resorufin benzyl ether after 30 mins by fluorescence spectrophotometric analysis. Type of series: ADME.
Chain of Cytochrome P450 3A4 (P08684 whole entry): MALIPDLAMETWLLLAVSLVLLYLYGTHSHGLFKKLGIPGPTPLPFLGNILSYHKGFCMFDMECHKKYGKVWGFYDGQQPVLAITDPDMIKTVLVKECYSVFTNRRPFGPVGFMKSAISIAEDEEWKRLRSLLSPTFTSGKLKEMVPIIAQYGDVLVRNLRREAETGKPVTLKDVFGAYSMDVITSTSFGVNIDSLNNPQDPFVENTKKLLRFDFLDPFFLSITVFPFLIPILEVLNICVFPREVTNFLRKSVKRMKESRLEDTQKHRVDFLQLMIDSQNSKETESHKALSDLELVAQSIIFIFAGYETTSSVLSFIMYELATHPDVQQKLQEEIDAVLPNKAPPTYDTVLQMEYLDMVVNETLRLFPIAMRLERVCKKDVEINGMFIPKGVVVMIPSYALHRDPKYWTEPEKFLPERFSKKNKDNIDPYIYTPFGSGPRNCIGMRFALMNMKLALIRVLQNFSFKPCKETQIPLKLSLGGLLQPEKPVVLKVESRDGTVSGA
Series [14] deals with T3, Sodium-dependent dopamine transporter. The series is described as follows: Inhibition of DAT-mediated [3H]DA in rat synaptosomes by scintillation counting. In kind it is subcellular, Brain.
Series [15] can be described thus: Inhibition of NET-mediated [3H]NE in rat synaptosomes by scintillation counting. In kind it is subcellular, Brain.
In series [16] the test system is Liver microsomes. The series is described as follows: Intrinsic clearance in rat liver microsomes at 1 uM after 60 mins by LC-MS/MS analysis. As to conditions: 1 h. Type of series: ADME, Microsome.
The species entered for series [17] is Rattus norvegicus. Description: Selectivity ratio of IC50 for rat DAT to IC50 for SERT in rat synaptosomes. The following applies: Brain.
Series [18] in a line: Oral bioavailability in rat at 2 mg/kg. Type of series: ADME, organism-based. The following applies: in vivo.
In another series the target is T4, Cytochrome P450 1A2 (Homo sapiens, UniProt P05177).
T4 sequence (P05177 whole entry): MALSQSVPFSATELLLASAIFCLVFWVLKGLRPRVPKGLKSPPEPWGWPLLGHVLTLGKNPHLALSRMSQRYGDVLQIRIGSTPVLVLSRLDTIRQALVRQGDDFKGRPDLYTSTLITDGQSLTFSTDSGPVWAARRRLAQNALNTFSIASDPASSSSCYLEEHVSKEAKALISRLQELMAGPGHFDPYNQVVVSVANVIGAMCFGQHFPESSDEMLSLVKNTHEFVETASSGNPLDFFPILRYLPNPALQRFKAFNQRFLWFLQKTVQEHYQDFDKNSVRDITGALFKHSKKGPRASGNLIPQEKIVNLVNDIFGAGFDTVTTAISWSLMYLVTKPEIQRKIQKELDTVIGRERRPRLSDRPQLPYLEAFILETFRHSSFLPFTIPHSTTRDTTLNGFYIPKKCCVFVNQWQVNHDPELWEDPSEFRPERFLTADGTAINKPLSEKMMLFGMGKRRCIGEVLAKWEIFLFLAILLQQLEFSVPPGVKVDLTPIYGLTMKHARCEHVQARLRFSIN
Description: Inhibition of human recombinant CYP1A2 using 7-ethoxy-3-cyanocoumarin after 28 mins by fluorescence spectrophotometric analysis. Type of series: ADME.

In another series the target is Cytochrome P450 2D6 (Homo sapiens, UniProt P10635). Description: Inhibition of human recombinant CYP2D6 using 3-[2-(N,N-diethyl-N-methylamino)ethyl]-7-methoxy- 4-methylcoumarin after 45 mins by fluorescence spectrophotometric analysis. In kind it is ADME.
Chain of Cytochrome P450 2D6 (P10635 whole entry): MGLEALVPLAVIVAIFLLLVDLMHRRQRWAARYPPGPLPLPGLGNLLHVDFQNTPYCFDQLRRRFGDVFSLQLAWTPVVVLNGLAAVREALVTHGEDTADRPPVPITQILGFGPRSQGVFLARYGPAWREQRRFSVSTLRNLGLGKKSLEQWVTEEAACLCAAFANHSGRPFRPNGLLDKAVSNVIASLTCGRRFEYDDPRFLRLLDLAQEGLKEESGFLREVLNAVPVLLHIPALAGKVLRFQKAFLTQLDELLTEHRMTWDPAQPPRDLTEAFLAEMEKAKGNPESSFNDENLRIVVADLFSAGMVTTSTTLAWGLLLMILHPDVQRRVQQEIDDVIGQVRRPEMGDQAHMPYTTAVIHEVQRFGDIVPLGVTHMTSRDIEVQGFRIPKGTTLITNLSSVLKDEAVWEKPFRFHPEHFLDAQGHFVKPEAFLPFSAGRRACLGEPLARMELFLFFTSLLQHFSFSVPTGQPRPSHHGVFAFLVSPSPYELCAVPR

Structures are written as SMILES.

T3 sequence (P23977 whole entry): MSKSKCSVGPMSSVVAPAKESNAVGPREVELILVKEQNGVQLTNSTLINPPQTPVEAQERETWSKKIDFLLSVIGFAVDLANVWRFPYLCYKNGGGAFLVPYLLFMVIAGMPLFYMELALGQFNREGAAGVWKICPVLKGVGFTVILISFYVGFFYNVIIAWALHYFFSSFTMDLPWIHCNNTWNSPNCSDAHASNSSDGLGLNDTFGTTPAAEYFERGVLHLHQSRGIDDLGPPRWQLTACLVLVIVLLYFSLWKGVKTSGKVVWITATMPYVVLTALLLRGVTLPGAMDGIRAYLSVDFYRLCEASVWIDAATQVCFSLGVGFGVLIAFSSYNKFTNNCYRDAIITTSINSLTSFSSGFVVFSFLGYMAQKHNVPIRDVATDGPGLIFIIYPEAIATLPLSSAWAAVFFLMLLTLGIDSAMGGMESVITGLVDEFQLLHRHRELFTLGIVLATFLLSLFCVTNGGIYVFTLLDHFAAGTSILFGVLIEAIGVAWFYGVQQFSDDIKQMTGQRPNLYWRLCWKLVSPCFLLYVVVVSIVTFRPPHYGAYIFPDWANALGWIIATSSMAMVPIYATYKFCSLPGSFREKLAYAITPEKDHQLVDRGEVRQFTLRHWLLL
Chain of Sodium-dependent serotonin transporter (P31652 whole entry): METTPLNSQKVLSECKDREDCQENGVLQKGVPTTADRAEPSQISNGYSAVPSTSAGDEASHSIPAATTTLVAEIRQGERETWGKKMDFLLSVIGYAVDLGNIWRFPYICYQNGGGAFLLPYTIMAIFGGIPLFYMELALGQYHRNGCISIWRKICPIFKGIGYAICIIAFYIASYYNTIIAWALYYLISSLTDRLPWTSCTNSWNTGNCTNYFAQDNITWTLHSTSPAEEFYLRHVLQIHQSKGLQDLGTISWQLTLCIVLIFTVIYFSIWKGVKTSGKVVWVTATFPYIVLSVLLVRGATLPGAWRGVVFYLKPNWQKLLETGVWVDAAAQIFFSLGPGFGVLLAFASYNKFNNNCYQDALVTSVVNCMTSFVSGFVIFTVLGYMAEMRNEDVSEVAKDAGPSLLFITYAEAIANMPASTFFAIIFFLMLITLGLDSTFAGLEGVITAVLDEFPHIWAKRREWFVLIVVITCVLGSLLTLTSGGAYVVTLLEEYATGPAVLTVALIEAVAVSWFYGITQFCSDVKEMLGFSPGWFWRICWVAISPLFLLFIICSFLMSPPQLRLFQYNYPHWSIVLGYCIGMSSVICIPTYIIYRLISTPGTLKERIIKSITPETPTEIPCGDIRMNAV
Chain of 5-hydroxytryptamine receptor 2C (P28335 whole entry): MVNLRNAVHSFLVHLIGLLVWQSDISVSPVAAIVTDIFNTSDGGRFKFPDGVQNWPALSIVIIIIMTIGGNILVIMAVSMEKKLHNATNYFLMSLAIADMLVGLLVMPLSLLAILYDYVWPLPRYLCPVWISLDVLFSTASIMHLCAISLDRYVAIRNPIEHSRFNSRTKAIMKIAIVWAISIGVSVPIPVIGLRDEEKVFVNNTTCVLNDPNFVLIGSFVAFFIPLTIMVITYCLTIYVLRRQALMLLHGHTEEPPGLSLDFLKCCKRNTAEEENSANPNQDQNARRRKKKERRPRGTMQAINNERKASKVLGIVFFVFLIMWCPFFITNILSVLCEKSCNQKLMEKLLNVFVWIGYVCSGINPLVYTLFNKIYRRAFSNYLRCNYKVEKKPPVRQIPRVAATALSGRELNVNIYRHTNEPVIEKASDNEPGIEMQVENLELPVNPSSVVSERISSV
Chain of Cytochrome P450 2C9 (P11712 whole entry): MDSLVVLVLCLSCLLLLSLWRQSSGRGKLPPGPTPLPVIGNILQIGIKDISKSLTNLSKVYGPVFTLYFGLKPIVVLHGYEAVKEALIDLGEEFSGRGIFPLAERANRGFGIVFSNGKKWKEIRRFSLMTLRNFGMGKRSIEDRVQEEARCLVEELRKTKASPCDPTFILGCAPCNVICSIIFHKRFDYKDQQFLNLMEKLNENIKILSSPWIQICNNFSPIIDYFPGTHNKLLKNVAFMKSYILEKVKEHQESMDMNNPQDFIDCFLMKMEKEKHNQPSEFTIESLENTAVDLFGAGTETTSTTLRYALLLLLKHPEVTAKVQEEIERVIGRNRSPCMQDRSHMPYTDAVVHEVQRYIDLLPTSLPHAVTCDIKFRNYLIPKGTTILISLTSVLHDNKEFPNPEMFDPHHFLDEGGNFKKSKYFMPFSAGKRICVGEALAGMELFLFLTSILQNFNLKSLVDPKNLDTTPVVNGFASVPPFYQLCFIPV

Regarding `CN(C)CCC[C@@]1(c2ccc(F)cc2)OCc2cc(C#N)ccc21` [ESCITALOPRAM], the Activity in the series with Rattus norvegicus [1] is listed as 700%.

On to `COc1ccc(Sc2ccc(C)cc2N2CCNCC2)cc1`, for which the Ki was < 100 nM in series [2], 190 nM in [3], < 100 nM in [4] and 4000 nM in series [5]. Also, the IC50 in [6] stood at 7.9 nM.

`Cl.Clc1ccc(Sc2ccccc2N2CCNCC2)cc1`: the CLH with Liver microsomes [7] worked out at 0.6 L/min; with Rattus norvegicus [8] it was 96.7 mL/min/kg; with Liver microsomes [16], 70 mL/min. The Ratio IC50 in the series filed under Rattus norvegicus [9] was determined as 12; in the series listed under Rattus norvegicus [12] it was 2.8; in the series filed under Rattus norvegicus [13] it was 15; in the series filed under Rattus norvegicus [17], 3.5. In addition, the IC50 is 190 nM in [10]; 45 nM in [11]; 31000 nM at Cytochrome P450 2C9; 6800 nM on Cytochrome P450 3A4; 13 nM in series [6]; 37 nM in [14]. In addition, the IC50 in series [15] came out at 160 nM; on Cytochrome P450 1A2, 53000 nM; at Cytochrome P450 2D6 it was 400 nM. Also, the Ki in series [3] came out at 36 nM; in series [5], 69 nM. In [18], this molecule displayed a bioavailability of 26%.
